Laboratory results taken from article PMC10983001, “Development of Cytotoxic GW7604-Zeise’s Salt Conjugates as Multitarget Compounds with Selectivity for Estrogen Receptor- Positive Tumor Cells” (Journal of Medicinal Chemistry, 2024).

Columns and labels:
[1] = test system: 5′-guanosine monophosphate (5′-GMP); assay: Reaction with 5′-GMP (ESI-HR-MS); assay type: binding; settings: 100 μM, MeOH/water 80/20, 5 min
Protocol: Thereto, GW7604-Pent-PtCl3 was incubated in a 1:1 ratio with 5′-GMP in a MeOH/water mixture [80/20, (v/v)], and the reaction products were identified by ESI-HR-MS after 5 min and 24 h.
GW7604-Pent-PtCl3 dissolved in MeOH was combined with an aqueous solution of 5′-GMP (disodium salt) to get an [80/20 (v/v)] solution with a complex concentration of 1 mM and a complex/5′-GMP proportion of 1/1.1. The mixture was diluted %1/10 (v/v)] with MeOH/water [80/20 (v/v)], reaching a final complex concentration of 100 μM, and ESI-HR-MS spectra were recorded after 5 min and 24 h. The obtained spectra were analyzed with MestreNova v14.

[2] = target: T1, ERα ligand-binding domain (Homo sapiens, UniProt P03372); assay: TR-FRET ligand binding assay, isolated LBD of ERα
T1 construct: purchased Invitrogen
T1 sequence (P03372 311-547 limits assumed): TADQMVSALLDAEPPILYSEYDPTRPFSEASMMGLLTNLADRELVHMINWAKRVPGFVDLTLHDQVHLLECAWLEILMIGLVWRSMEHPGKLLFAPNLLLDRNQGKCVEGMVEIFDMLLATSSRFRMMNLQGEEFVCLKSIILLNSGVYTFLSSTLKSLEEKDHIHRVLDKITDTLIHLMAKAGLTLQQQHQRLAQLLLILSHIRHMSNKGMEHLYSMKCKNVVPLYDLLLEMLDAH
Protocol: A modified LanthaScreen TR-FRET alpha/beta assay was performed, according to the manufacturer’s protocol (Invitrogen, Carlsbad, […]), to determine the binding affinity to the isolated LBD. […] Measurements were carried out on a multimode plate reader, Tecan Spark (Tecan, Männedorf, Switzerland). Calculations and visualization were performed with GraphPad Prism 8.0 (GraphPad Software, San Diego, CA, USA).

MCF-7 cells = assay: Comet assay; assay type: cell-based, human; settings: MCF-7, 20 μM, 48 h
Protocol: The comet assay (Figure 10), however, documents different consequences of DNA binding. […] The picture (Figure 10C) is very similar to that of the solvent control (Figure 10A).
MCF-7 cells were seeded at a density of 1.0 × 10^6 cells into a 25 cm^2 flask, followed by 24 h of incubation in a humidified atmosphere (5% CO2/95% air) at 37 °C. […] Cells were incubated with the compounds for 48 h. The assay was performed according to the manufacturer’s protocol (Comet assay kit, Abcam, Cambridge, UK). Briefly, after lysis and application to the microscopy slides, electrophoresis was run in an alkaline buffer for 20 min at 2 V/cm. Subsequently, slides were washed with pure deionized water and EtOH/water [7/3 (v/v)], and stained with Vista Green DNA Dye. Visualization was carried out by real-time live confocal microscopy using an inverted microscope (Zeiss Observer Z1) in arrangement with a spinning disc confocal system (UltraVIEW VoX).

human recombinant COX-1 = target: T2, human recombinant COX-1 (Homo sapiens, UniProt P23219); assay type: biochemical; settings: incubation 10 min
T2 construct: purchased Cayman Chemicals
T2 sequence (P23219 24-599): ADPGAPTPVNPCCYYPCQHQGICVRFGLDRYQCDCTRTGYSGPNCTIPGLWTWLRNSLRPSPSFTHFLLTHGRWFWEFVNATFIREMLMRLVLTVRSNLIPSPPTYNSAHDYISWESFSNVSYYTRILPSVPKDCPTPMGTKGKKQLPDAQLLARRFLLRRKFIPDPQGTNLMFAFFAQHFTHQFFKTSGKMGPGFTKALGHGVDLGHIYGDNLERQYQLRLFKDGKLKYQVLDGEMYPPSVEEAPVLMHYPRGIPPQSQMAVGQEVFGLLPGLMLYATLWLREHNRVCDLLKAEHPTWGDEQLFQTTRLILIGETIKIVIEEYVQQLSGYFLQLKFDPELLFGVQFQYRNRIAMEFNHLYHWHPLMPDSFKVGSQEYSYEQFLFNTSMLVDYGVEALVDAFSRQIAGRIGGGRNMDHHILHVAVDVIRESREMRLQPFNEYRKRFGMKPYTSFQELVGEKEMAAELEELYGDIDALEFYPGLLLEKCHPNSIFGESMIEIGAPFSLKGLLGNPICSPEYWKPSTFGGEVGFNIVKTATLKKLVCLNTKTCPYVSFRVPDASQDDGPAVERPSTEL
Protocol: (§1) COX-1/2 inhibition was evaluated in an established assay on isolated isoenzymes. After incubation with the drugs (concentration: 20 μM) for 10 min, the remaining COX activity was measured by an enzyme-linked immunosorbent assay (ELISA).
(§2) The incubation time of the compounds with the respective isoenzymes was exactly 10 min. The results are presented as the mean ± SEM of three independent experiments, with two replicates of each experiment. […] Graphs were drawn using GraphPad Prism 8.0.

human recombinant COX-2 = target: T3, human recombinant COX-2 (Homo sapiens, UniProt P35354); assay type: biochemical; settings: incubation 10 min
T3 construct: purchased Cayman Chemicals
T3 sequence (P35354 18-604): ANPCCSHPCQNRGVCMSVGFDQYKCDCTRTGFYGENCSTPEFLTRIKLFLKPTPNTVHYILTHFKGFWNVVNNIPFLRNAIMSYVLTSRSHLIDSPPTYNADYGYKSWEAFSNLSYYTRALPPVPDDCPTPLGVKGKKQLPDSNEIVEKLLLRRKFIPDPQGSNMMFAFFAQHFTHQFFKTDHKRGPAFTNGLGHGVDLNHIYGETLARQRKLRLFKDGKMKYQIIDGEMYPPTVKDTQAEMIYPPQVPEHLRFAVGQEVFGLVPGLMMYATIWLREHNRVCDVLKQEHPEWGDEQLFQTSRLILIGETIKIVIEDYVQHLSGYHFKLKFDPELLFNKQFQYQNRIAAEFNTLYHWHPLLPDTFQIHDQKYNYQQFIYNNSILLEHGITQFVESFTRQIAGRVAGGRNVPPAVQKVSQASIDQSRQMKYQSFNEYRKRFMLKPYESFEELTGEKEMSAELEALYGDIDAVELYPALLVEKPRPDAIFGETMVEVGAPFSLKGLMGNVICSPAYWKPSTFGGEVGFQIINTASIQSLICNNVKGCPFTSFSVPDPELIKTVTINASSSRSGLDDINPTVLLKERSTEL
Protocol: as §1, §2

Compound: CCC(=C(c1ccc(O)cc1)c1ccc(C=CC(=O)OCCC[CH]2[CH2][Pt-]2([Cl])([Cl])[Cl])cc1)c1ccccc1.[K+] (mixture of isomers) [GW7604-Pent-PtCl3, Potassium trichlorido[η^2-(pent-4-en-1-yl (E)-3-(4-((E/Z)-1-(4-hydroxyphenyl)-2-phenylbut-1-en-1-yl)phenyl)acrylate)]platinate(II)]
- adduct formation with 5′-GMP [1]: 5′-GMP-platinum adducts were present
- RBA (ERα) ([2]; RBA(E2) = 100%): 7.29%
- IC50 ([2]; read-out: IC50 (ERα), displacement from the LBS): 4.81 nM
- comet tails (DNA cross-links) (MCF-7 cells): did not show this effect
- IC50 (human recombinant COX-1; 0.1–20 μM): 1700 nM
- concentration at which maximum activity is reached, COX-1 (human recombinant COX-1): 10 µM
- IC50 (human recombinant COX-2; 0.1–20 μM): 1820 nM
- concentration at which maximum activity is reached, COX-2 (human recombinant COX-2): 10 µM
